Key:
bedstraw = test: Test B pre/postemergence bedstraw; format: in vivo, Galium aparine; settings: Preemergence
Summary of the method: (§1)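 Response is a visual 0-to-10 score relative to untreated plants, where 0 means no effect and 10 means complete control, taken twelve to sixteen days after application. Treatments went onto soil at planting and onto foliage of 1- to 4-leaf plants, using a surfactant-containing non-phytotoxic solvent.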

blackgrass = test: Test B pre/postemergence blackgrass; format: in vivo, Alopecurus myosuroides
Summary of the method: as §1

surinam grass = test: Test B pre/postemergence surinam grass; format: in vivo, Brachiaria decumbens
Summary of the method: as §1

cocklebur = test: Test B pre/postemergence cocklebur; format: in vivo, Xanthium strumarium
Summary of the method: as §1

giant foxtail = test: Test B pre/postemergence giant foxtail; format: in vivo, Setaria faberii
Summary of the method: as §1

morningglory = test: Test B pre/postemergence morningglory; format: in vivo, Ipomoea hederacea
Summary of the method: as §1

pigweed = test: Test B pre/postemergence pigweed; format: in vivo, Amaranthus retroflexus
Summary of the method: as §1

rape = test: Test B pre/postemergence rape; format: in vivo, Brassica napus
Summary of the method: as §1

soybean = test: Test B pre/postemergence soybean; format: in vivo, Glycine max
Summary of the method: as §1

sugar beet = test: Test B pre/postemergence sugar beet; format: in vivo, Beta vulgaris
Summary of the method: as §1

wheat = test: Test B pre/postemergence wheat; format: in vivo, Triticum aestivum
Summary of the method: as §1

wild oat = test: Test B pre/postemergence wild oat; format: in vivo, Avena fatua
Summary of the method: as §1

purple nutsedge = test: Test B pre/postemergence purple nutsedge; format: in vivo, Cyperus rotundus
Summary of the method: as §1

smallflower flatsedge = test: Test B flood test smallflower flatsedge; format: in vivo, Cyperus difformis
Summary of the method: (§2)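 Read-out is a visual response score from 0 (no effect) to 10 (complete control), assigned by comparison with untreated controls. Treatment was applied at the 2-leaf stage, and plants stayed in the greenhouse for twelve to sixteen days before scoring.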

duck salad = test: Test B flood test duck salad; format: in vivo, Heteranthera limosa
Summary of the method: as §2

bamyardgrass = test: Test B flood test barnyardgrass; format: in vivo, Echinochloa crus-galli
Summary of the method: as §2

[1] = Postemergence, Rate 62 g/ha, scale 0 to 10, 0 is no effect, 10 is complete control
[2] = Postemergence, Rate 125 g/ha, scale of 0 to 10 where 0 is no effect and 10 is complete control
[3] = Postemergence, Rate 250 g/ha, scale of 0 to 10, 0 is no effect, 10 is complete control
[4] = Postemergence, Rate 500 g/ha, scale of 0 to 10 where 0 is no effect and 10 is complete control
[5] = Preemergence, Rate 62 g/ha, scale 0 to 10 (0 no effect, 10 complete control)
[6] = Preemergence, Rate 125 g/ha, scale of 0 to 10 where 0 is no effect and 10 is complete control
[7] = Preemergence, Rate 250 g/ha, scale 0 to 10 (0 no effect, 10 complete control)
[8] = Preemergence, Rate 500 g/ha, scale of 0 to 10 where 0 is no effect and 10 is complete control
[9] = Rate 62 g/ha, flood test species, Pre-emergence, visual evaluation after twelve to sixteen days
[10] = Rate 125 g/ha, under heading Pre-emergence, flood test species, visual evaluation after twelve to sixteen days
[11] = Rate 250 g/ha, Pre-emergence (flood test species), scale 0 to 10, 0 is no effect, 10 is complete control
[12] = Rate 500 g/ha, Pre-emergence section of Table B, 0 to 10 scale (0 no effect, 10 complete control)

CC(C)N(C(=O)n1oc(=O)n(CSC#N)c1=O)c1ccc(F)cc1 [Compound 618]
Bedstraw plant response rating (bedstraw; Rate 62 g/ha, scale 0 to 10 (0 no effect, 10 complete control)): 0 | Bedstraw plant response rating (bedstraw; Rate 125 g/ha, scale of 0 to 10 where 0 is no effect and 10 is complete control): 0 | Plant response rating, Bedstraw (bedstraw; Rate 250 g/ha, scale 0 to 10 (0 no effect, 10 complete control)): 0 | Bedstraw plant response rating (bedstraw; Rate 500 g/ha, scale of 0 to 10 where 0 is no effect and 10 is complete control): 0 | Plant response rating, Blackgrass (blackgrass; [1]): 0 | Plant response rating, Blackgrass (blackgrass; [2]): 0 | Blackgrass plant response rating (blackgrass; [3]): 0 | Plant response rating, Blackgrass (blackgrass; [4]): 0 | Blackgrass plant response rating (blackgrass; [5]): 0 | Blackgrass plant response rating (blackgrass; [6]): 0 | Plant response rating, Blackgrass (blackgrass; [7]): 0 | Blackgrass plant response rating (blackgrass; [8]): 0 | Plant response rating, B. signalgrass (surinam grass; [1]): 0 | Plant response rating, B. signalgrass (surinam grass; [2]): 0 | B. signalgrass plant response rating (surinam grass; [3]): 0 | Plant response rating, B. signalgrass (surinam grass; [4]): 0 | B. signalgrass plant response rating (surinam grass; [5]): 0 | B. signalgrass plant response rating (surinam grass; [6]): 0 | Plant response rating, B. signalgrass (surinam grass; [7]): 0 | B. signalgrass plant response rating (surinam grass; [8]): 0 | Plant response rating, Cocklebur (cocklebur; [1]): 0 | Cocklebur plant response rating (cocklebur; [3]): 0 | Plant response rating, Cocklebur (cocklebur; [4]): 0 | Cocklebur plant response rating (cocklebur; [5]): 0 | Cocklebur plant response rating (cocklebur; [6]): 0 | Plant response rating, Cocklebur (cocklebur; [8]): 0 | Plant response rating, Giant foxtail (giant foxtail; [1]): 0 | Plant response rating, Giant foxtail (giant foxtail; [2]): 0 | Giant foxtail plant response rating (giant foxtail; [3]): 0 | Plant response rating, Giant foxtail (giant foxtail; [4]): 0 | Giant foxtail plant response rating (giant foxtail; [5]): 2 | Giant foxtail plant response rating (giant foxtail; [6]): 2 | Plant response rating, Giant foxtail (giant foxtail; [7]): 2 | Plant response rating, Giant foxtail (giant foxtail; [8]): 0 | Plant response rating, Morningglory (morningglory; [1]): 0 | Plant response rating, Morningglory (morningglory; [2]): 0 | Morningglory plant response rating (morningglory; [3]): 0 | Plant response rating, Morningglory (morningglory; [4]): 0 | Morningglory plant response rating (morningglory; [5]): 0 | Morningglory plant response rating (morningglory; [6]): 0 | Plant response rating, Morningglory (morningglory; [7]): 0 | Plant response rating, Morningglory (morningglory; [8]): 0 | Plant response rating, Redroot pigweed (pigweed; [1]): 0 | Plant response rating, Redroot pigweed (pigweed; [2]): 0 | Redroot pigweed plant response rating (pigweed; [3]): 0 | Redroot pigweed plant response rating (pigweed; [5]): 0 | Redroot pigweed plant response rating (pigweed; [6]): 0 | Plant response rating, Redroot pigweed (pigweed; [7]): 0 | Plant response rating, Redroot pigweed (pigweed; [8]): 0 | Plant response rating, Rape (rape; [1]): 0 | Plant response rating, Rape (rape; [2]): 0 | Rape plant response rating (rape; [3]): 0 | Plant response rating, Rape (rape; [4]): 0 | Rape plant response rating (rape; [5]): 0 | Rape plant response rating (rape; [6]): 0 | Plant response rating, Rape (rape; [7]): 0 | Plant response rating, Rape (rape; [8]): 0 | Plant response rating, Soybean (soybean; [1]): 0 | Plant response rating, Soybean (soybean; [2]): 0 | Soybean plant response rating (soybean; [3]): 6 | Soybean plant response rating (soybean; [5]): 0 | Soybean plant response rating (soybean; [6]): 0 | Plant response rating, Soybean (soybean; [7]): 0 | Plant response rating, Soybean (soybean; [8]): 0 | Plant response rating, Sugarbeets (sugar beet; [1]): 0 | Plant response rating, Sugarbeets (sugar beet; [2]): 0 | Sugarbeets plant response rating (sugar beet; [3]): 0 | Sugarbeets plant response rating (sugar beet; [5]): 0 | Sugarbeets plant response rating (sugar beet; [6]): 0 | Plant response rating, Sugarbeets (sugar beet; [7]): 0 | Plant response rating, Sugarbeets (sugar beet; [8]): 0 | Plant response rating, Wheat (wheat; [1]): 0 | Plant response rating, Wheat (wheat; [2]): 0 | Wheat plant response rating (wheat; [3]): 0 | Wheat plant response rating (wheat; [5]): 0 | Wheat plant response rating (wheat; [6]): 0 | Plant response rating, Wheat (wheat; [7]): 0 | Plant response rating, Wheat (wheat; [8]): 0 | Plant response rating, Wild oats (wild oat; [1]): 0 | Plant response rating, Wild oats (wild oat; [2]): 0 | Wild oats plant response rating (wild oat; [3]): 0 | Wild oats plant response rating (wild oat; [5]): 0 | Wild oats plant response rating (wild oat; [6]): 0 | Plant response rating, Wild oats (wild oat; [7]): 0 | Plant response rating, Wild oats (wild oat; [8]): 0 | Plant response rating, Nutsedge (purple nutsedge; [1]): 0 | Plant response rating, Nutsedge (purple nutsedge; [2]): 0 | Nutsedge plant response rating (purple nutsedge; [3]): 0 | Nutsedge plant response rating (purple nutsedge; [6]): 0 | Plant response rating, Nutsedge (purple nutsedge; [8]): 0 | Plant response rating, S. Flatsedge (0 to 10 scale, 0 is no effect, 10 is complete control) (smallflower flatsedge; [9]): 0 | S. Flatsedge plant response rating (0 to 10 scale, 0 is no effect, 10 is complete control) (smallflower flatsedge; [10]): 0 | S. Flatsedge plant response rating (smallflower flatsedge; [11]): 0 | S. Flatsedge plant response rating (smallflower flatsedge; [12]): 0 | Plant response rating, Ducksalad (0 to 10 scale, 0 is no effect, 10 is complete control) (duck salad; [9]): 0 | Ducksalad plant response rating (0 to 10 scale, 0 is no effect, 10 is complete control) (duck salad; [10]): 0 | Ducksalad plant response rating (duck salad; [11]): 0 | Ducksalad plant response rating (duck salad; [12]): 0 | Plant response rating, Barnyardgrass (0 to 10 scale, 0 is no effect, 10 is complete control) (bamyardgrass; [9]): 0 | Barnyardgrass plant response rating (0 to 10 scale, 0 is no effect, 10 is complete control) (bamyardgrass; [10]): 0 | Barnyardgrass plant response rating (bamyardgrass; [11]): 0 | Barnyardgrass plant response rating (bamyardgrass; [12]): 0
